# Reference: patent US5602101A, “Antithrombotic agents” (priority 1994, dated 1997)
# Like-named read-outs stand apart in the source and are kept apart here. Non-standard residues stand in square brackets, D forms with d. Residues, ends and D or L forms follow the SMILES beside them. dCha = N[C@H](CC1CCCCC1)C(=O)O
# How the values were obtained:
# Human Plasma [1] = experiment: Anticoagulation in human plasma, prothrombin time (PT); format: biochemical; details: concentration required to double the PT
# How it was run: (§1)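 Compounds were added to human plasma over a range of concentrations. PT used Thromboplastin-C reagent with saline; APTT used a 120-second Actin preincubation followed by 0.02M CaCl2, and TT used bovine thrombin. Clotting times were read on a CoAScreener, and the concentration doubling clotting time was estimated by linear extrapolation.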
# [2] = Index of bioavailability (plasma TT AUC, p.o. vs i.v.); details: rats, adjusted for dose
# Protocol: (§3) Male Sprague Dawley rats (350-425 gm, Harlan Sprague Dawley Inc., Indianapolis, Ind.) are anesthetized with xylazine (20 mg/kg, s.c.) and ketamine (120 mg/kg, s.c.) and maintained on a heated water blanket (37° C.). The jugular vein(s) is cannulated to allow for infusions.
# (§4) Plasma thrombin time (TT) and activated partial thromboplastin time (APTT) are measured with a fibrometer. Blood is sampled from a jugular catheter and collected in syringe containing sodium citrate (3.8%, 1 part to 9 parts blood). To measure TT, rat plasma (0.1 ml) is mixed with saline (0.1 ml) and bovine thrombin (0.1 ml, 30 U/ml in TRIS buffer; Parke Davis) at 37° C. For APTT, plasma (0.1 ml) and APTT solution (0.1 ml, Organon Teknika are incubated for 5 minutes (37° C.) and CaCl2 (0.01 ml, 0,025M) is added to start coagulation. Assays are done in duplicate and averaged.
# (§5) The time course of the effect of the thrombin inhibitor upon TT is determined after i.v bolus administration to anesthetized rats and after oral treatment of fasted conscious rats. Due to limitations of blood volume and the number of points required to determine the time course from time of treatment to the time when the response returns to pretreatment values, two populations of rats are used. Each sample population represents alternating sequential time points. The average TT over the time course is used to calculate area under the curve (AUC). The index of bioavailability is calculated by the formula shown below and is expressed as percent relative activity.
# (§6) The area under the curve (AUC) of the plasma TT time course is determined and adjusted for the dose. This index of bioavailability is termed "% Relative Activity" and is calculated as [formula]
# (§7) Compound solutions are prepared fresh daily in normal saline and are injected as a bolus or are infused starting 15 min before and continuing throughout the experimental perturbation which is 15 minutes in the arteriovenous shunt model and 60 minutes in the FeCl3 model of arterial injury and in the spontaneous thrombolysis model. Bolus injection volume is 1 ml/kg for i.v., and 5 ml/kg for p.o. and infusion volume is 3 ml/hr.
# Human Plasma [3] = experiment: Anticoagulation in human plasma, activated partial thromboplastin time (APTT); format: biochemical; details: concentration required to double the APTT
# How it was run: as §1
# factor Xa = target: T1, factor Xa (Homo sapiens, UniProt P00742); experiment: Serine protease inhibition, factor Xa (chromogenic substrate), Kass; format: biochemical; details: substrate N-Benzoyl-Ile-Glu-Gly-Arg-p-nitroanilide
# T1 construct: Human factors X, Xa, IXa, XIa, and xIIa are purchased from Enzyme Research Laboratories; purchased Enzyme Research Laboratories, South Bend, Ind
# T1 sequence (P00742 235-488 limits assumed): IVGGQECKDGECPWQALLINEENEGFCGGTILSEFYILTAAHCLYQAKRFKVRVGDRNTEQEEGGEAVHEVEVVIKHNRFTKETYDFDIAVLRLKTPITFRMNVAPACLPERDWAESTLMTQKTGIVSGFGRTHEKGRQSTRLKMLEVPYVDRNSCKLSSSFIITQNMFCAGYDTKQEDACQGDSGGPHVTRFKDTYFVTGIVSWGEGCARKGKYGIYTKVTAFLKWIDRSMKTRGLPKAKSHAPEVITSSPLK
# T1 sequence (P00742 41-179 partner limits assumed): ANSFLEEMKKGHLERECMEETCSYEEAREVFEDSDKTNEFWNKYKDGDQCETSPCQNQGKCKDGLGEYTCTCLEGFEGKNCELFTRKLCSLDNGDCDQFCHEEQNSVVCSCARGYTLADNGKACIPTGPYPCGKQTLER
# How it was run: (§2)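 Enzyme mixed with test compound in 0.03M Tris, 0.15M NaCl, pH 7.4, then p-nitroanilide substrate added (Bz-Ile-Glu-Gly-Arg-pNA for factor Xa; Bz-Phe-Val-Arg-pNA for trypsin; H-D-Ile-Pro-Arg-pNA for t-PA; H-D-Val-Leu-Lys-pNA for plasmin); hydrolysis followed at 405 nm. Free enzyme from standard curves gave bound enzyme and free inhibitor; Kass (L/mol) averaged over several compound concentrations.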
# Human plasmin = target: T2, Human plasmin (Homo sapiens, UniProt P00747); experiment: Serine protease inhibition, plasmin (chromogenic substrate), Kass; format: biochemical; details: substrate H-D-Val-Leu-Lys-p-nitroanilide
# T2 construct: Human plasmin is purchased from Boehringer Mannheim, Indianapolis, Ind; purchased Boehringer Mannheim, Indianapolis, Ind
# T2 sequence (P00747 581-810 limits assumed): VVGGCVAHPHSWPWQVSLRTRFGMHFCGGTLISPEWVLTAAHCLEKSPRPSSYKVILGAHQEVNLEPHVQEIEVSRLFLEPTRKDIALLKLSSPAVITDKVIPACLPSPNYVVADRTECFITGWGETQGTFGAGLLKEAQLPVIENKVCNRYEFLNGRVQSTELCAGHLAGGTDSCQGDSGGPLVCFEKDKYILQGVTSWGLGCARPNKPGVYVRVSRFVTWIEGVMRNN
# T2 sequence (P00747 97-580 partner limits assumed): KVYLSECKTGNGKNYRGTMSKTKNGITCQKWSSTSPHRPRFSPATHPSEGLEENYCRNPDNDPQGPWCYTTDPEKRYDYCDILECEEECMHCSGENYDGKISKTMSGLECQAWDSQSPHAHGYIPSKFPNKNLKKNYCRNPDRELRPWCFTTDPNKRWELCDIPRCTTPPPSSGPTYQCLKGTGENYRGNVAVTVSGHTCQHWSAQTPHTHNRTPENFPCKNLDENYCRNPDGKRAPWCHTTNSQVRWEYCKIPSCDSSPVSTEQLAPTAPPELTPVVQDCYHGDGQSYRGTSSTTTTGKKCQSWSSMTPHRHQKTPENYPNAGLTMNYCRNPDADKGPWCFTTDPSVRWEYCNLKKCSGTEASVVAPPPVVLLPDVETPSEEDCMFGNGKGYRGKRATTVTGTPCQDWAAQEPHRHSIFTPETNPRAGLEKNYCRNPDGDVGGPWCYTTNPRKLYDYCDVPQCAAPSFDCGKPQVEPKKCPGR
# How it was run: as §2
# human thrombin = target: T3, human thrombin (Homo sapiens, UniProt P00734); experiment: Inhibition of amidase activity of thrombin (chromogenic substrate), Kass; format: biochemical; details: substrate N-benzoyl-Phe-Val-Arg-p-nitroanilide, pH 7.4
# T3 construct: purified human thrombin Enzyme Research Laboratories, South Bend, Ind; purchased Enzyme Research Laboratories, South Bend, Ind
# How it was run: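 Human thrombin (8 NIH units/ml solution) with compound in 0.03M Tris, 0.15M NaCl, pH 7.4; chromogenic substrate hydrolysis followed at 405 nm. Free thrombin from standard curves gives bound enzyme and free inhibitor; Kass, an association equilibrium constant in L/mol, averaged over a compound concentration range.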
# Human Plasma [4] = experiment: Anticoagulation in human plasma, thrombin time (TT); format: biochemical; details: concentration required to double the thrombin time
# How it was run: as §1
# Bovine trypsin = target: T4, Bovine trypsin (Bos taurus, UniProt P00760); experiment: Serine protease inhibition, trypsin (chromogenic substrate), Kass; format: biochemical; details: substrate N-Benzoyl-Phe-Val-Arg-p-nitroanilide
# T4 construct: Bovine trypsin is purchased from Worthington Biochemicals, Freehold, N.J; purchased Worthington Biochemicals, Freehold, N.J
# T4 sequence (P00760 24-246): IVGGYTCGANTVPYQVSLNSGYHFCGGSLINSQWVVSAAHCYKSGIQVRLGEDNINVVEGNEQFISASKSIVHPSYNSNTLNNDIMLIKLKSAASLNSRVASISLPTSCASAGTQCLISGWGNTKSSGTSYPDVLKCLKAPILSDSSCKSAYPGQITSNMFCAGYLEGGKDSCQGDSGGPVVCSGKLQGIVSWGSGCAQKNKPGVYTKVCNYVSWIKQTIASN
# How it was run: as §2
# [5] = target: T5, tissue plasminogen activator (t-PA) (Homo sapiens, UniProt P00750); experiment: Serine protease inhibition, t-PA (chromogenic substrate), Kass; format: biochemical; details: for Enzyme Kass, t-Pa: substrate H-D-Ile-Pro-Arg-p-nitroanilide
# T5 construct: purchased American Diagnostics, Greenwich, Conn
# T5 sequence (P00750 36-562): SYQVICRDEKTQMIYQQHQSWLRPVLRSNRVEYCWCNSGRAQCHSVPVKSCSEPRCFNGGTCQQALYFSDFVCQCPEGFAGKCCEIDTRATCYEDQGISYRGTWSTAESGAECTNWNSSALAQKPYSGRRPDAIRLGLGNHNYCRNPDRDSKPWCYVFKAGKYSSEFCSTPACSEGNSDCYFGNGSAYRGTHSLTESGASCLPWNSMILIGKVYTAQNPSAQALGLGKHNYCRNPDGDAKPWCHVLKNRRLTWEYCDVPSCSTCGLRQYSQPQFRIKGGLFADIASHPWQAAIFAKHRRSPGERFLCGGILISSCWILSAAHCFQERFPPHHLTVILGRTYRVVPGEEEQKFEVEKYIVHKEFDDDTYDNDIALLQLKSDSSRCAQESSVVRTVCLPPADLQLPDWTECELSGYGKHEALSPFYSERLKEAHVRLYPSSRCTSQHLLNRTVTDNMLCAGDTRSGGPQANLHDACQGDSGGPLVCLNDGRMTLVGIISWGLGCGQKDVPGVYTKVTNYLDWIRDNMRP
# How it was run: as §2
# [6] = rat, in vivo
# Protocol: as §3, §4, §5, §6, §7
SMILES,"2 × Clotting time, PT (Human Plasma [1])","Index of Bioavailability, % Relative Activity [2] [%]","2 × Clotting time, APTT (Human Plasma [3])","Enzyme Kass, Xa (factor Xa) [L/mol × 10^6]","Enzyme Kass, Plasmin (Human plasmin) [L/mol × 10^6]","Enzyme Kass, Human Thrombin (human thrombin)","2 × Clotting time, TT (Human Plasma [4]) [ng/mL]","Enzyme Kass, Trypsin (Bovine trypsin) [L/mol × 10^6]","Enzyme Kass, t-Pa [5] [L/mol × 10^6]",t-Pa inhibition ([5]; at 13 μg/mL) [%],"Index of Bioavailability, % Relative Activity [6] [%]"
"CCCS(=O)(=O)N[C@H](Cc1ccccc1)C(=O)N1CCC[C@H]1C(=O)N[C@H](C=O)CCCNC(=N)N.Cl [Example 9, n-Pr-SO2 -D-Phe-Pro-Arg-H.HCl]",510 ng/mL,14,220 ng/mL,13,29,"1,700 L/mol × 10^6",6,480,2.8,,
"CCCCS(=O)(=O)N[C@H](Cc1ccccc1)C(=O)N1CCC[C@H]1C(=O)N[C@H](C=O)CCCNC(=N)N.Cl [Example 10, n-Bu-SO2 -D-Phe-Pro-Arg-H.HCl]",700 ng/mL,18,300 ng/mL,8.3,27,470 L/mol × 10^6,18,230,0.83,,
"CC(C)S(=O)(=O)N[C@H](Cc1ccccc1)C(=O)N1CCC[C@H]1C(=O)N[C@H](C=O)CCCNC(=N)N.Cl [Example 11, i-Pr-SO2 -D-Phe-Pro-Arg-H-HCl]",510 ng/mL,10,270 ng/mL,6.0,25,460 L/mol × 10^6,13,260,3.5,,
"CN(C)S(=O)(=O)N[C@H](Cc1ccccc1)C(=O)N1CCC[C@H]1C(=O)N[C@H](C=O)CCCNC(=N)N.Cl [Example 12, Me2 NSO2 -D-Phe-Pro-Arg-H.HCl]",480 ng/mL,26,360 ng/mL,3.9,21,300 L/mol × 10^6,46,160,,100,
"Cl.N=C(N)NCCC[C@@H](C=O)NC(=O)[C@@H]1CCCN1C(=O)[C@@H](Cc1ccccc1)NS(=O)(=O)c1ccccc1 [Example 13, PhSO2 -D-Phe-Pro-Arg-H.HCl]",930 ng/mL,3,450 ng/mL,3.6,19,270 L/mol × 10^6,14,180,2.3,,
"Cl.N=C(N)NCCC[C@@H](C=O)NC(=O)[C@@H]1CCCN1C(=O)[C@@H](Cc1ccccc1)NS(=O)(=O)c1ccc(F)cc1F [Example 14, 2,4-F-PhSO2 -D-Phe-Pro-Arg-H-HCl]",940 ng/mL,6,350 ng/mL,11,25,230 L/mol × 10^6,21,160,2.4,,
"Cl.N=C(N)NCCC[C@@H](C=O)NC(=O)[C@@H]1CCCN1C(=O)[C@@H](Cc1ccccc1)NS(=O)(=O)c1ccc(C(=O)O)cc1 [Example 18, 4-(HO2 C)-C6 H4 SO2 -D-Phe-Pro-Arg-H.HCl]","3,000 ng/ML",13,"1,200 ng/ML",2.0,7.0,70 L/mol × 10^6,120,43,1.1,,
"CCS(=O)(=O)N[C@H](CC1CCCCC1)C(=O)N1CCC[C@H]1C(=O)N[C@H](C=O)CCCNC(=N)N.Cl [Example 21, EtSO2 -D-Cha-Pro-Arg-H.HCl]",730 ng/mL,,260 ng/mL,20,45,550 L/mol × 10^6,25,200,0.73,,19
"CC(=O)N[C@H](CC1CCCCC1)C(=O)N1CCC[C@H]1C(=O)N[C@H](C=O)CCCNC(=N)N.Cl [Example 28, Ac-D-Cha-Pro-Arg-H.HCl] (Ac-[dCha]-Pro-Arg-aldehyde)","3,500 ng/ML",,"1,900 ng/ML",1.1,0.61,26 L/mol × 10^6,92,12,0.035,,9
"Cl.N=C(N)NCCC[C@@H](C=O)NC(=O)[C@@H]1CCCN1C(=O)[C@@H](Cc1ccccc1)NCC1CCCCC1 [Example 30, cyclohexyl-CH2 -D-phe-pro-Arg-H.HCl]","1,200 ng/ML",1,860 ng/mL,0.11,0.49,480 L/mol × 10^6,16,69,0.046,,
"CCOC(=O)N[C@H](Cc1ccccc1)C(=O)N1CCC[C@H]1C(=O)N[C@H](C=O)CCCNC(=N)N.Cl [Example 33, EtOCO-D-Phe-Pro-Arg-H.HCl]","2,000 ng/ML",14,390 ng/mL,2.3,16,170 L/mol × 10^6,22,240,2.5,,
